Source: ChEMBL document CHEMBL1201862, “PubChem BioAssay data set” (2004)
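48-hour exposure; five concentrations; linearly interpolated endpoints. Here, GI50 denotes the concentration required for 50% inhibition of growth.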 Active and inactive are the calls of the source. Cut-off read from the data, not from the text of the source: active = GI50 up to about 1.1 µM and inactive = higher.

Key:
Test in all cases: inhibition of tumour cell growth, NCI panel, 48 h
LOX IMVI = tested on: LOX IMVI
A549 = tested on: A549
SF-295 = tested on: SF-295
HCT-116 = tested on: HCT-116
SK-MEL-2 = tested on: SK-MEL-2
HOP-62 = tested on: HOP-62
SN12C = tested on: SN12C
K562 = tested on: K562
786-0 = tested on: 786-0
UACC-62 = tested on: UACC-62
COLO 205 = tested on: COLO 205
SF-268 = tested on: SF-268
NCI-H522 = tested on: NCI-H522
CCRF-CEM = tested on: CCRF-CEM
OVCAR-5 = tested on: OVCAR-5

Measured: GI50

CS(=O)(=O)NNS(=O)(=O)c1ccccc1
inactive: LOX IMVI > 100 µM | A549 > 100 µM | SF-295 > 100 µM | HCT-116 > 100 µM | SK-MEL-2 > 100 µM | HOP-62 > 100 µM | SN12C > 100 µM | K562 > 100 µM | 786-0 > 100 µM | UACC-62 > 100 µM | COLO 205 > 100 µM | SF-268 > 100 µM | NCI-H522 > 100 µM | CCRF-CEM > 100 µM

COc1cccc(C2N3CCCCC3[C@@H]3c4[nH]c5ccccc5c4CCN23)c1OC (some centres not stated)
inactive: A549 15.8 µM | SF-295 17.6 µM | HCT-116 17.3 µM | SK-MEL-2 14.5 µM | HOP-62 15.9 µM | SN12C 16.9 µM | K562 14.7 µM | 786-0 18.3 µM | UACC-62 11.6 µM | COLO 205 15.2 µM | SF-268 11.5 µM | OVCAR-5 15.9 µM | CCRF-CEM 17.3 µM

CC/C(=N/O)c1ccc2[nH]c3c(C)cc([N+](=O)[O-])c(C)c3c2c1
inactive: LOX IMVI 54.1 µM | A549 17.1 µM | SF-295 52 µM | HCT-116 41.8 µM | SK-MEL-2 > 100 µM | HOP-62 44 µM | SN12C 76.2 µM | K562 20.1 µM | 786-0 36 µM | COLO 205 71.4 µM | SF-268 61.4 µM | NCI-H522 22.9 µM | OVCAR-5 > 100 µM | CCRF-CEM 15.1 µM

CC1(C)C(=NNC(=S)NN)C(C)(C)C1=NNC(=S)NN
inactive: LOX IMVI > 100 µM | A549 > 100 µM | SF-295 > 100 µM | SK-MEL-2 > 100 µM | HOP-62 > 100 µM | SN12C > 100 µM | K562 43.2 µM | 786-0 > 100 µM | UACC-62 > 100 µM | COLO 205 > 100 µM | SF-268 > 100 µM | NCI-H522 75 µM | OVCAR-5 > 100 µM | CCRF-CEM 60.8 µM

CN[C@@H](C)[C@@H](N)c1ccccc1
inactive: LOX IMVI > 100 µM | A549 > 100 µM | SF-295 > 100 µM | HCT-116 > 100 µM | SN12C > 100 µM | K562 > 100 µM | 786-0 > 100 µM | UACC-62 > 100 µM | COLO 205 > 100 µM | NCI-H522 > 100 µM | CCRF-CEM > 100 µM

CC1=C(C(=O)Nc2ccccc2C)C(c2ccccc2O)C(C(=O)Nc2ccccc2C)=C(C)N1
inactive: LOX IMVI 18.6 µM | A549 33.7 µM | SF-295 18.6 µM | HCT-116 18.4 µM | SK-MEL-2 17.1 µM | HOP-62 21.1 µM | SN12C 19.5 µM | K562 25.2 µM | 786-0 15.3 µM | UACC-62 15.8 µM | SF-268 33.7 µM | OVCAR-5 30.8 µM | CCRF-CEM 24.6 µM

CCOC(=O)COc1cccc2c1C(=O)CCO2
inactive: LOX IMVI > 100 µM | A549 > 100 µM | SF-295 > 100 µM | HCT-116 > 100 µM | SK-MEL-2 > 100 µM | HOP-62 > 100 µM | SN12C > 100 µM | K562 > 100 µM | 786-0 > 100 µM | UACC-62 > 100 µM | COLO 205 > 100 µM | SF-268 > 100 µM | NCI-H522 > 100 µM | OVCAR-5 > 100 µM | CCRF-CEM > 100 µM

N#CC(Sc1ccccc1)C(N)=O (configuration not stated)
inactive: LOX IMVI > 100 µM | A549 > 100 µM | SF-295 > 100 µM | HCT-116 > 100 µM | HOP-62 > 100 µM | SN12C > 100 µM | K562 > 100 µM | 786-0 > 100 µM | UACC-62 > 100 µM | COLO 205 > 100 µM | SF-268 > 100 µM | NCI-H522 > 100 µM | OVCAR-5 > 100 µM | CCRF-CEM > 100 µM

CCOC(=O)/C(=C/c1ccc(C(=O)OC)cc1)N(CC)CC
inactive: LOX IMVI 63.2 µM | A549 24.5 µM | SF-295 > 10 µM | HCT-116 37.2 µM | SK-MEL-2 44.9 µM | HOP-62 51.6 µM | SN12C 70.8 µM | K562 26.2 µM | 786-0 41 µM | UACC-62 53.5 µM | COLO 205 70.1 µM | SF-268 40.1 µM | NCI-H522 37.8 µM | OVCAR-5 > 100 µM | CCRF-CEM 30.6 µM

O=C(O)/C(=C\c1ccccc1Cl)S(=O)(=O)c1ccccc1
inactive: LOX IMVI > 100 µM | A549 > 100 µM | SF-295 > 100 µM | HCT-116 > 100 µM | SK-MEL-2 > 100 µM | HOP-62 > 100 µM | SN12C > 100 µM | K562 > 100 µM | 786-0 > 100 µM | UACC-62 > 100 µM | COLO 205 > 100 µM | SF-268 > 100 µM | NCI-H522 > 100 µM | OVCAR-5 > 100 µM | CCRF-CEM 14.5 µM

O=C(CCc1cc(-c2ccccc2)[nH]c(=S)n1)Nc1ccccc1[N+](=O)[O-]
inactive: LOX IMVI > 100 µM | A549 > 100 µM | SF-295 > 100 µM | HCT-116 > 100 µM | SK-MEL-2 > 100 µM | HOP-62 > 100 µM | SN12C > 100 µM | K562 > 100 µM | 786-0 > 100 µM | UACC-62 > 100 µM | COLO 205 > 100 µM | SF-268 > 100 µM | NCI-H522 > 100 µM | OVCAR-5 > 100 µM | CCRF-CEM > 100 µM

O=C(CC(=O)c1cccc([N+](=O)[O-])c1)C(=O)Nc1ccccc1
inactive: LOX IMVI > 100 µM | A549 > 100 µM | SF-295 > 100 µM | HCT-116 > 100 µM | SK-MEL-2 > 100 µM | HOP-62 > 100 µM | SN12C > 100 µM | K562 > 100 µM | 786-0 > 100 µM | UACC-62 > 100 µM | SF-268 > 100 µM | NCI-H522 > 100 µM | OVCAR-5 > 100 µM | CCRF-CEM > 100 µM

C[Si](C)(C)/C(Br)=C\CCN1C(=O)CCC1=O
inactive: LOX IMVI > 100 µM | A549 > 100 µM | SF-295 > 100 µM | HCT-116 > 100 µM | SK-MEL-2 > 100 µM | HOP-62 > 100 µM | SN12C > 100 µM | K562 > 100 µM | 786-0 > 100 µM | UACC-62 > 100 µM | COLO 205 > 100 µM | SF-268 > 100 µM | OVCAR-5 > 100 µM | CCRF-CEM > 100 µM

C/C(=C\Cc1cc(O)ccc1O)CCc1c(C)c(O)c(O)c(C=O)c1C [PANICEIN C]
inactive: A549 30.4 µM | SF-295 25.4 µM | HCT-116 19.1 µM | SK-MEL-2 23.2 µM | SN12C 26.7 µM | K562 > 100 µM | 786-0 25.6 µM | COLO 205 18.6 µM | SF-268 27 µM | NCI-H522 5.24 µM | CCRF-CEM 3.28 µM
